Entries after “also recorded” stand apart in the source; their conditions may differ.
Legend:
[1] = system: ARPE-19 cells; assay: Hoechst staining, TNFα/H2O2 oxidative stress-induced apoptosis; assay type: cell-based, human; conditions: 50 nM added with TNFα 10 ng/ml plus H2O2 (400-800 μM); 14 h
Experimental: ARPE-19 cell culture and chemicals: ARPE-19 cells (L. M. Hjelmeland, ATCC # CRL-2302) were grown and maintained in DMEM-F12 medium supplemented with 10% FBS and incubated at 37° C. with a constant supply of 5% CO2. ARPE-19 cells are spontaneously transformed human retinal pigment epithelial cells that conserve cellular biological and functional properties. All chemicals were purchased from Sigma Chemical Co. (St. Louis, Mo.) unless otherwise indicated.
Hoechst staining: ARPE-19 cells were loaded with 2 μM Hoechst dissolved in a Locke's solution (Promega, Madison, Wis.) and incubated one h at 37° C. before imaging. Cells were then washed once with PBS and viewed using a Nikon DIAPHOT 200 microscope under UV fluorescence. Images were recorded by a Hamamatsu Color Chilled 3CCD camera and Photoshop 5.0 software, as described in Mukherjee, P. K., DeCoster, M. A., Campbell, F. Z., Davis, R. J. & Bazan, N. G. (1999) J. Biol. Chem. 274:6493-6498.
Several experimental conditions that result in reproducible oxidative-stress-induced apoptosis in ARPE-19 cells were tested. One condition chosen was the combination of TNFα with H2O2, both in relatively low concentrations. Typically 10 ng/ml of TNFα and 400-800 μM H2O2 led to marked increase in Hoechst-positive cells (Data not shown). Neither TNFα nor H2O2 alone triggered a significant effect under these conditions. (Data not shown).
Serum starvation made ARPE-19 cells more sensitive to oxidative stress-triggered apoptosis induced by TNFα/H2O2. Cells were grown in culture for 72 h in the presence of BSA (3.35 μM) with or without DHA (6.7 μM). Endogenous NPD1 formation was enhanced by BSA-DHA (FIG. 12A).
In the next experiment, confluent cells were starved for 8 h, then TNFα/H2O2 was added and incubated for 14 h before staining with Hoechst reagent. NPD1 (50 nM) was added at the time of adding TNFα/H2O2. […] When the TNFα concentration (10 ng/ml) was maintained and H2O2 concentration was decreased from 800 to 400 μM, fewer Hoechst-positive cells were seen. […] (Data not shown).

[2] = system: Aβ40 and Aβ42 peptide secretion; assay: Aβ40 and Aβ42 peptide secretion by aging HN cells (Western immunoblot of medium); assay type: cell-based, human; conditions: aging HN cells cultured up to 8 weeks; DHA 50 nM or IL-1β 10 ng/ml continuously in medium
Experimental: Human Neural (HN) Cells. HN cells in primary culture, starting as primary spheroids (CC-2599, Clonetics, Walkersville, Md.), were grown in neural progenitor maintenance medium (NPMM) containing human epidermal and fibroblast growth factor, gentamicin/amphotericin (G/A1000), and neural survival factor-1 for up to 8 weeks. […] (Data not shown).
Additions of IL-1β and DHA to the Growth Medium. After 1 week of HN cell growth, IL-1β (10 ng/ml) or DHA (50 nM) was added to the NPMM culture medium.
To determine the effect of cytokine-mediated stress on aging HN cells, AP peptide release was assayed in the continuous presence in the culture medium of IL-1β, an inducer of reactive oxygen species (ROS) generation and oxidative stress as described in Lynch, A. M., Moore, M., Craig, S., Lonergan, P. E., Martin, D. S., Lynch, M. A. (2003) J. Biol. Chem., 278: 51075-51084; and Kaur, J., Dhaunsi, G. S., Turner, R. B. (2004) Med. Princ. Pract., 13: 26-29. Parallel experiments in aging HN cells were performed in the presence of control neuro-progenitor maintenance medium (NPMM) and the continuous presence of NPMM+DHA.

[3] = system: prostaglandin E2 (PGE2) formation; assay: ELISA of PGE2 in hippocampus during reperfusion after MCA-O; assay type: in vivo, mouse; conditions: aspirin 7.52 mg/kg by gavage 15 min before MCA-O; C57BL/6 mice
Experimental: To confirm that the aspirin dose administered by gavage did reach the brain, the time course for prostaglandin E2, LTB4, and lipoxin A4 production was determined in the hippocampus in parallel assays. The time course of prostaglandin E2, leukotriene B4, and lipoxin A4 formation was followed in mouse hippocampus after 1-h middle cerebral artery occlusion (MCA-O), followed by reperfusion with (FIG. 2B) or without (FIG. 2A) aspirin treatment. Detection of the compounds was performed by sensitive and specific ELISA, in tandem, for prostaglandin E2 (PGE2), leukotriene B4 (LTB4), and lipoxins (LXA4) (Neogen, Lexington, Ky.). […] Maximal LTB4 was generated in aspirin-treated hippocampus by 8 h, as was the case with lipoxin A4, which also peaked within 8 h.

[4] = system: polymorphonuclear leukocyte infiltration (myeloperoxidase activity); assay: Myeloperoxidase (MPO) activity assay in hippocampus and neocortex after MCA-O and reperfusion; assay type: in vivo, mouse; conditions: 1 h MCA-O, 48 h reperfusion
Experimental: Middle Cerebral Artery Occlusion (MCA-O) and reperfusion. Experimental protocols were reviewed and approved by the Institutional Animal Care and Use Committee of Louisiana State University Health Sciences Center, New Orleans. Mice (20-25 g body wt) were induced with 2% isoflurane in a mixture of 70% nitrous oxide and 30% oxygen. Anesthesia was maintained with 1% isoflurane. Temperature was maintained at 36.5-37.5° C. using a Harvard homeothermic blanket. P 10 polyethylene catheters were placed in the femoral artery and vein, and the blood pressure was monitored. Arterial blood was analyzed for PO2, PCO2, and pH after 1 h of ischemia and 30 min after the onset of reperfusion. The common carotid and external carotid arteries were temporarily ligated with a retracting suture, and the external carotid artery was dissected just proximal to its bifurcation. The occluding filament was introduced from the external carotid artery and advanced to the internal carotid artery. The AVM micro clip was removed. The filament was advanced so that the blunted tip lay in the anterior cerebral artery and the side of the filament occluded the origin of the middle cerebral artery (MCA). The stump of the external carotid artery was ligated, and tension on the retracting suture to the common carotid artery was gently released, restoring blood flow to the carotid system.
Occlusion of the middle cerebral artery (MCA-O) was maintained for 1 h; reperfusion was then established by delicate retrieval of the occluding suture from the arterial lumen, restoring blood flow to the region of the MCA. The mice were then killed, and the hippocampus and brain cortex rapidly dissected and frozen. Samples were kept at −80° C. until analysis. In some experiments, aspirin (7.5 mg/kg) was administered by gavage 15 min before MCA-O.
Polymorphonuclear leukocyte infiltration measurement by the myeloperoxidase (MPO) assay. Inhibition of leukocyte infiltration by 10,17S-docosatriene (NPD1) or docosahexaenoic acid (DHA) was measured in mouse hippocampus and neocortex after 1 h of middle cerebral artery occlusion (MCA-O) and 48 h of reperfusion. Lipids were delivered for each experiment by perfusion (250 nl/h) through Alzet minipumps implanted into the third ventricle. Hippocampus and neocortex from the ipsilateral (MCA-O-reperfusion) and contralateral sides were rapidly dissected. Brain samples were assayed for myeloperoxidase activity as described in Huang, J., Choudhri, T. F., Winfree, C. J., McTaggart, R. A., Kiss, S., Mocco, J., Kim, L. J., Protopsaltis, T. S., Zhang, Y., Pinsky, D. J., and Connolly Jr., E. S. (2000) Stroke 31, 3047-3053. Briefly, brain tissues were homogenized in 10 mM phosphate buffer (pH 7.4), then frozen and thawed with liquid N2 followed by sonication. Samples were precipitated at 10,000×g for 10 min, then aliquots of supernatants were added to 10 mM phosphate buffer (pH 6.0) and a substrate solution containing o-dianisidine (Sigma; St. Louis, Mo.) and 0.025% hydrogen peroxide, and finally incubated at 37° C. for 45 min. Spectrophotometric detection was obtained at 460 nm.

[5] = system: polymorphonuclear leukocyte infiltration; assay: Zymosan-induced peritonitis, leukocyte infiltration; assay type: in vivo, mouse; conditions: zymosan-induced peritonitis, FVB mice; i.v. bolus 1.5 min before Zymosan A; lavage at 2 h
Experimental: The inhibition of leukocyte infiltration in zymosan-induced peritonitis by 4,17S-diHDHA and 10,17S-docosatriene (NPD1) was tested. […] Peritonitis was induced in 6- to 8-week-old male FVB mice (Charles River Laboratories) by peritoneal injection of 1 mg Zymosan A. The compounds 4,17S- and 10,17S-diHDHA were injected by intravenous bolus injection, 1.5 minutes before Zymosan A treatment. Two hours after induction of peritonitis, rapid peritoneal lavages were collected, and cell type enumeration was performed.

[6] = system: Bcl-2 gene expression; assay: HGU133 GeneChip DNA array in HN cells: Bcl-2; assay type: cell-based, human; conditions: Aβ42 25 μM, DHA 50 nM or NPD1 50 nM, 18 h, nsc = no significant change
[7] = system: NF-κB-DNA binding activity; assay: EMSA of NF-κB in hippocampus after MCA-O; assay type: in vivo, mouse; conditions: ipsilateral hippocampus; 1 h MCA-O, 2 h reperfusion; infused into third ventricle 3 h at 0.25 μl/h (NPD1 0.16 μg/ml)
Experimental: Electrophoretic mobility-shift assay (EMSA) of human AP1, HIF-1α, NF-κBp50/p65, and STAT-1α. Nuclear protein extracts (NPXTs) were prepared from one to three 3.5 cm-diameter wells of HN cells and quantitated. NPXTs (5 μg) derived from HN cells were incubated with[γ-^32P]-ATP (˜3000 Ci/mmol)-end-labeled AP1, HIF-1α, NF-κκBp50/p65, or STAT-1α consensus and mutant oligonucleotides in 5-μl volumes, reacted for 30 min on ice, analyzed on 5% or 10% acrylamide/90 mM Tris-borate pH 8.4, 1 mM EDTA (TBE) gels, dried onto 2-mm Whatman filter paper at 80° C. for 2 h, and phosphorimaged using a Typhoon Variable Mode Imager (Amersham Pharmacia Biotech, Piscataway, N.J. ).
FIGS. 7A, 7B, and 7C show mouse hippocampus after 1 h MCA-O was followed by 2 h reperfusion, where either vehicle, DHA, or 10,17S-docosatriene (NPD1) (0.16 μg/ml) was infused into the third ventricle for 3 h at 0.25 μl/h. […] NF-κB was increased over two fold in the ipsilateral hippocampus after MCA-O, and the infusion of either DHA or 10,17S-docosatriene (NPD1) inhibited ischemia-reperfusion-induced NF-κB activation by 28% and 48%, respectively (FIG. 7A).

[8] = system: COX-2 expression; assay: COX-2 mRNA abundance in ipsilateral hippocampus after MCA-O; assay type: in vivo, mouse; conditions: 1 h MCA-O, 2 h reperfusion, infused into third ventricle (NPD1 0.16 μg/ml)
Experimental: COX-2 RNA abundance in hippocampus and HN cells. Abundance of human-specific COX-1 and COX-2 RNA message was assayed using RT-PCR as described in Bazan, N. G., and Lukiw, W. J. (2002) J. Biol. Chem. 277, 30359-30367.
To determine COX-1 and COX-2 expression, mRNA abundance in the ipsilateral hippocampus was measured. […] A 3-fold increase of COX-2 was seen due to MCA-O reperfusion (FIG. 7C). The infusion of the precursor DHA as well as its product 10,17S-docosatriene (NPD1) inhibited COX-2 expression by 14% and 52%, respectively.

[9] = system: Bcl-xL gene expression; assay: HGU133 GeneChip DNA array in HN cells: Bcl-xL; assay type: cell-based, human; conditions: Aβ42 25 μM, DHA 50 nM or NPD1 50 nM, 18 h, nsc = no significant change
[10] = 1 μg or 3 μg over 48 h (dose of the value not stated)

CCCCC/C=C\C[C@@H](O)/C=C/C=C/C=C\[C@@H](O)CCCC(=O)O [LTB4, leukotriene B4]
inhibition of oxidative stress (TNFα/H2O2)-induced Hoechst-positive cells / apoptosis [1]: partially inhibitory

IL-1β: human recombinant interleukin 1-beta, cytokine stressor
effect on Aβ peptide (Aβ40 and Aβ42) secretion [2]: enhanced

CC(=O)Oc1ccccc1C(=O)O [aspirin]
effect on accumulation of PGE2 in hippocampus within 8 h of reperfusion [3]: inhibited

CCCCC[C@H](O)/C=C/[C@H]1[C@H](O)CC(=O)[C@@H]1C/C=C\CCCC(=O)O [PGE2, prostaglandin E2]
inhibition of oxidative stress (TNFα/H2O2)-induced Hoechst-positive cells / apoptosis [1]: neither PGE2, LTB4, nor 20-OH-LTB4 (each at 50 nM) was able to elicit the degree of inhibition

10,17S-docosatriene methyl ester [10,17S-docosatriene (NPD1) methyl ester]
inhibition of ipsilateral myeloperoxidase activity, hippocampus [4, 10]: 49% | inhibition of ipsilateral myeloperoxidase activity, neocortex [4, 10]: 97%

CCC=CCC(O)C=CC=CCC=CCC=CC=CC(O)CCC(=O)O (stereo not drawn) [4,17S-diHDHA]
inhibition of polymorphonuclear leukocyte infiltration [5]: dose-dependent inhibition; also recorded: some inhibition

CC/C=C\C/C=C\C/C=C\C/C=C\C/C=C\C/C=C\CCC(=O)O [DHA, docosahexaenoic acid]
inhibition of myeloperoxidase activity, hippocampus ([4]; 2 μg over 48 h perfusion): 60% | inhibition of myeloperoxidase activity, neocortex ([4]; 2 μg over 48 h perfusion): no inhibition | inhibition of myeloperoxidase activity, hippocampus ([4]; 20 μg over 48 h perfusion): 72% | inhibition of myeloperoxidase activity, neocortex ([4]; 20 μg over 48 h perfusion): 40% | inhibition of myeloperoxidase activity, hippocampus ([4]; 200 μg over 48 h perfusion): 82% | inhibition of myeloperoxidase activity, neocortex ([4]; 200 μg over 48 h perfusion): 73% | Bcl-2 gene expression, fold change over untreated controls [6]: +2.5 fold | inhibition of ischemia-reperfusion-induced NF-κB activation [7]: 28% | inhibition of COX-2 expression (mRNA) [8]: 14% | Bcl-xL gene expression, fold change over untreated controls [9]: +1.5 fold

O=C(O)CCC[C@H](O)\C=C/C=C/C=C/[C@H](O)C/C=C\CCCCCO [20-OH-LTB4]
inhibition of oxidative stress (TNFα/H2O2)-induced Hoechst-positive cells / apoptosis [1]: neither PGE2, LTB4, nor 20-OH-LTB4 (each at 50 nM) was able to elicit the degree of inhibition

CCCCC/C=C\C/C=C\C/C=C\C/C=C\CCCC(=O)O [Arachidonic acid, arachidonic acid]
inhibition of oxidative stress (TNFα/H2O2)-induced Hoechst-positive cells / apoptosis [1]: partially effective

— patent US20050075398A1, “Neuroprotectin D1 protects against cellular apoptosis, stroke damage, alzheimer's disease and retinal diseases” (priority 2003, published 2005)
